Data on 22 substances can be found in patent US10556936B2, “Immunogenic proteins and fragments thereof from allergenic mites” (ALK-ABELLÓ A/S, priority 2016, dated 2020).

For this experiment, the system named is HDM-specific T cells expanded from PBMCs of HDM-allergic individuals. As to the kind of experiment: T cell reactivity of peptides: IFN/IL-5 ELISPOT on in vitro expanded HDM-specific T cells. The class given is cell-based, human. Conditions: for SFC/donor: individual peptides 10 μg/mL; for % responder: percentage of donors that produced a response against the peptide, 10 μg/mL. The procedure: Each sequence of an “L” cluster was aligned separately using the MEGA software tool with ClustalW. Fifteen-mer peptides overlapping by 10 amino acids were generated and the last 15-mer peptide was added when the sequence length was not divisible by 5, 14,783 unique peptides remained.
HLA class II binding predictions optimized for global coverage were performed for the seven class II alleles (HLA-DRB1*03:01, HLA-DRB1*07:01, HLA-DRB1*15:01, HLA-DRB3*01:01, HLA-DRB3*02:02, HLA-DRB4*01:01 and HLA-DRB5*01:01) using the standalone version of the IEDB class II binding prediction tool. The median consensus percentile rank was estimated from the consensus percentile ranks for the seven alleles. Further, peptides with more than ten overlapping amino acids, which appeared because several occurrences of some sequence regions were repeated multiple times in the same sequence, were eliminated (e.g. “[…]” was repeated seven times in one sequence.) Variant peptides were also removed, retaining the better peptide based on the median consensus percentile rank and conservation among the sequences within its respective cluster. Peptides with median consensus percentile rank ≤10.0 and conserved in ≥35% of sequences in the same cluster were finally selected, also including additional selected peptides chosen to maximize DRB1 allele coverage, for a grand total of 2,589 peptides.
Peptides were purchased from Mimotopes (Clayton, Victoria, Australia) or A and A (San Diego, Calif.) as crude material on a small (1-mg) scale. Individual peptides were resuspended in DMSO at a final concentration of 40 mg/mL. Peptide “megapools” of 30-65 peptides/pool were generated. Following lyophilization, each pool was reconstituted in DMSO so that each peptide was present at a concentration of 4 mg/mL. To facilitate deconvolution of positive megapools, each megapool was further broken down in 2-6 “mesopools” (259 mesopools in total), each containing 8-14 peptides. Each mesopool was then deconvoluted to identify individual positive peptides. To avoid dimerization and polymerization of peptides by intra- and intermolecular disulfide bond formation between cysteine residues, this amino acid were in some instances substituted by a serine residue in the peptides. Such peptides are herein marked with an asterisk (*).
PBMCs from European HDM-allergic individuals were recruited in the Copenhagen region (defined by clinical history of allergy to house dust mite and specific IgE to group 1 and group 2 major allergens from Der p and/or Der f and with measured specific IgE (CAP) >0.7 kU/L towards Der p/f 1 or Der p/f 2. In addition, PBMCs from 10 US HDM-allergic individuals were recruited in San Diego (defined by Der p extract IgE titers greater than 0.35 kUA/L). PBMCs were isolated from whole blood by density gradient centrifugation according to manufacturers' instructions (Ficoll-Hypaque, Amersham Biosciences, Uppsala, Sweden). Der p- and Der f-specific extract IgE titers were determined using the ImmunoCAP system (Thermo Fisher, Uppsala, Sweden). In a separate series of experiments, pooled plasma from 10 European and 10 American HDM atopic individuals from the San Diego region, respectively, was utilized to run 2D immunoblots to elucidate IgE and IgG reactivity towards the proteins, which had at least one peptide with positive T cell response.
HDM-specific T cells were expanded in vitro. Briefly, PBMCs from HDM-allergic individuals were stimulated with HDM extract (5 μg/mL) and expanded over 14-17 days with IL-2 (added every 3 days). Cells were harvested on day 14, restimulated with HDM extract (5 μg/mL), individual peptides (10 μg/mL) or peptide pools (5 μg/mL) and screened for […]/IL-5-production by ELISPOT. Criteria for positivity were 100 or 20 spot forming cells (SFCs) per 10^6 PBMCs for peptide pools or single peptides, respectively, p<0.05, and a stimulation index >2.

On to “113 (LCIRWYQLGAFYSFA; Immunogenic fragment) [compound 113]”, for which the SFC/donor was found to be 40 SFC/donor and the “% responder” value stood at 15%.
On to “107 (NEALKTTLNKRPFII; Immunogenic fragment) [compound 107]”, for which the SFC/donor amounted to 9 SFC/donor and the “% responder” value is on record as 5%.
Consider “EPFMINQLAALIRRE (Immunogenic fragment) [Peptide 181, fragment of A0023 Der f/p]”, for which the SFC/donor was found to be 40 SFC/donor and the “% responder” value is reported as 10%.
With “115 (AFYSFVRNHNTDNAI; Immunogenic fragment) [compound 115]”, the SFC/donor was 15 SFC/donor and the “% responder” value came to 20%.
Consider “120 (AHLYTLFYHVHKNGG; Immunogenic fragment) [compound 120]”, for which the SFC/donor worked out at 8 SFC/donor and the “% responder” value amounted to 5%.
In the case of “65 (LISIPEFVRKIPGRK; Immunogenic fragment) [compound 65]”, the SFC/donor was determined as 6 SFC/donor and the “% responder” value came out at 5%.
Taken in the same sequence, the figures for “74 (TVSLRHLFQSFEITA; Immunogenic fragment) [compound 74]” were 25 SFC/donor and 5%.
For the substance “116 (LGESVIRAARSSLQY; Immunogenic fragment) [compound 116]”, the SFC/donor was found to be 30 SFC/donor and the “% responder” value amounted to 15%.
On to “83 (DLSMTKLKRVRPSGF; Immunogenic fragment) [compound 83]”, for which the SFC/donor is recorded as 4 SFC/donor and the “% responder” value amounted to 5%.
As to “88 (MVYSDQLIHVTSRLP; Immunogenic fragment) [compound 88]”, the SFC/donor turned out to be 3 SFC/donor and the “% responder” value is given as 5%.
As to “87 (QSIFDINLAYMVYSD; Immunogenic fragment) [compound 87]”, the SFC/donor is 69 SFC/donor and the “% responder” value is 20%.
Consider “HKPIILGTLRNGATN (Immunogenic fragment) [Peptide 182, fragment of A0023 Der f]”, for which the SFC/donor came out at 175 SFC/donor and the “% responder” value came to 10%.
For the substance “71 (LLRLEHFYQRFEDPS; Immunogenic fragment) [compound 71]”, the SFC/donor is recorded as 8 SFC/donor and the “% responder” value is 5%.
Turning to “126 (TQNINFINILGVPKL; Immunogenic fragment) [compound 126]”, the SFC/donor turned out to be 72 SFC/donor and the “% responder” value was found to be 15%.
On to “109 (HWNGDILSDWSSMRW; Immunogenic fragment) [compound 109]”, for which the SFC/donor worked out at 88 SFC/donor and the “% responder” value came out at 25%.
In the case of “DWRNLYPRKYAFALP (Immunogenic fragment) [Peptide 186, fragment of A0023 Der f]”, the SFC/donor stood at 64 SFC/donor and the “% responder” value is 5%.
In the case of “76 (FKSFEIIAVEELTLG; Immunogenic fragment) [compound 76]”, the SFC/donor is 8 SFC/donor and the “% responder” value was determined as 5%.
Taken in the same sequence, the figures for “45 (IMRILCCKSRKVAPC; Immunogenic fragment) [compound 45]” were 4 SFC/donor and 5%.
For “81 (DDGNLISRALPHLGV; Immunogenic fragment) [compound 81]” the same measures were 8 SFC/donor and 5%.
Taken in the same sequence, the figures for “103 (QLHYNLHNLYSLSMA; Immunogenic fragment) [compound 103]” were 69 SFC/donor and 5%.
Consider “63 (EFCPYLNISSCPSTE; Immunogenic fragment) [compound 63]”, for which the SFC/donor is on record as 7 SFC/donor and the “% responder” value turned out to be 10%.
For the substance “49 (KGIIPGIKVDTGVVT; Immunogenic fragment) [compound 49]”, the SFC/donor was 83 SFC/donor and the “% responder” value was 10%.
